Reference: ChEMBL document CHEMBL5620391 (Eur J Med Chem, 2023)
One block for each compound: values may come before it.

Tests used:
[1] = biological target: Serine/threonine-protein kinase mTOR (Homo sapiens, UniProt P42345); assay: Inhibition of N-terminal FLAG-tagged recombinant human mTOR (1362 to end residues) using ULight-4E-BP1 (Thr37/46) peptide as substrate incubated for 30 mins in presence of ATP by LANCE ultra assay
[2] = biological target: Phosphatidylinositol 4,5-bisphosphate 3-kinase catalytic subunit beta isoform (Homo sapiens, UniProt P42338); assay: Inhibition of PI3Kbeta (unknown origin) using PIP2 as substrate incubated for 60 mins in presence of ATP by ADP-Glo assay
Sequence of Phosphatidylinositol 4,5-bisphosphate 3-kinase catalytic subunit beta isoform (P42338 whole entry, canonical isoform): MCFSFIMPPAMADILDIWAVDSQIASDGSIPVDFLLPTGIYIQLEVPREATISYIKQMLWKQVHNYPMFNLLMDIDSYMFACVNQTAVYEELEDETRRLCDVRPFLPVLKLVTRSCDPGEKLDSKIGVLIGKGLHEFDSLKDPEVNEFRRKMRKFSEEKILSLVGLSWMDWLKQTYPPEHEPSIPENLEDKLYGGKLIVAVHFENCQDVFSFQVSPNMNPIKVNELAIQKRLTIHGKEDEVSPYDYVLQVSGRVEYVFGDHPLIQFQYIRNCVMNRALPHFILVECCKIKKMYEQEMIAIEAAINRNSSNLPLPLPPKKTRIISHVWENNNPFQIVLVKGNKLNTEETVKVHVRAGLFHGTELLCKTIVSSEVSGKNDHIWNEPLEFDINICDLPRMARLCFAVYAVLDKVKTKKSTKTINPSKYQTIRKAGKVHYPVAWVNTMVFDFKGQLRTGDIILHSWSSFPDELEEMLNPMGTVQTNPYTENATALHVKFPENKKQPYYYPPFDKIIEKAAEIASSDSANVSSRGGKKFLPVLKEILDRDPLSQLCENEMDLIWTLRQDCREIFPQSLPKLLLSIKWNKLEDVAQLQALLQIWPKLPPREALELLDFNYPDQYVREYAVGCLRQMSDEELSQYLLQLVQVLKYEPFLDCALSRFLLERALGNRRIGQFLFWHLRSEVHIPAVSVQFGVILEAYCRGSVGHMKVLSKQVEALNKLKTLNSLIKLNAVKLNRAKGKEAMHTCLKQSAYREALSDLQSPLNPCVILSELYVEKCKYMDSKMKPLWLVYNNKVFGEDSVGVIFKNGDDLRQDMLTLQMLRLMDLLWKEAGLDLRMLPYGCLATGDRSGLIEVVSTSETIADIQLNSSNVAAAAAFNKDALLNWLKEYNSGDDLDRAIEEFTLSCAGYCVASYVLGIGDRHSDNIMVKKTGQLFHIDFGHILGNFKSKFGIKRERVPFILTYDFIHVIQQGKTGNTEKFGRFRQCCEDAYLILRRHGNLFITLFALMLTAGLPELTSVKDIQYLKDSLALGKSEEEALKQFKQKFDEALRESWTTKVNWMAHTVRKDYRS

[3] = biological target: T1, Phosphatidylinositol 4,5-bisphosphate 3-kinase catalytic subunit delta isoform (Homo sapiens, UniProt O00329); assay: Inhibition of PI3Kdelta (unknown origin) using PIP2 as substrate incubated for 60 mins in presence of ATP by ADP-Glo assay
T1 sequence (O00329 whole entry): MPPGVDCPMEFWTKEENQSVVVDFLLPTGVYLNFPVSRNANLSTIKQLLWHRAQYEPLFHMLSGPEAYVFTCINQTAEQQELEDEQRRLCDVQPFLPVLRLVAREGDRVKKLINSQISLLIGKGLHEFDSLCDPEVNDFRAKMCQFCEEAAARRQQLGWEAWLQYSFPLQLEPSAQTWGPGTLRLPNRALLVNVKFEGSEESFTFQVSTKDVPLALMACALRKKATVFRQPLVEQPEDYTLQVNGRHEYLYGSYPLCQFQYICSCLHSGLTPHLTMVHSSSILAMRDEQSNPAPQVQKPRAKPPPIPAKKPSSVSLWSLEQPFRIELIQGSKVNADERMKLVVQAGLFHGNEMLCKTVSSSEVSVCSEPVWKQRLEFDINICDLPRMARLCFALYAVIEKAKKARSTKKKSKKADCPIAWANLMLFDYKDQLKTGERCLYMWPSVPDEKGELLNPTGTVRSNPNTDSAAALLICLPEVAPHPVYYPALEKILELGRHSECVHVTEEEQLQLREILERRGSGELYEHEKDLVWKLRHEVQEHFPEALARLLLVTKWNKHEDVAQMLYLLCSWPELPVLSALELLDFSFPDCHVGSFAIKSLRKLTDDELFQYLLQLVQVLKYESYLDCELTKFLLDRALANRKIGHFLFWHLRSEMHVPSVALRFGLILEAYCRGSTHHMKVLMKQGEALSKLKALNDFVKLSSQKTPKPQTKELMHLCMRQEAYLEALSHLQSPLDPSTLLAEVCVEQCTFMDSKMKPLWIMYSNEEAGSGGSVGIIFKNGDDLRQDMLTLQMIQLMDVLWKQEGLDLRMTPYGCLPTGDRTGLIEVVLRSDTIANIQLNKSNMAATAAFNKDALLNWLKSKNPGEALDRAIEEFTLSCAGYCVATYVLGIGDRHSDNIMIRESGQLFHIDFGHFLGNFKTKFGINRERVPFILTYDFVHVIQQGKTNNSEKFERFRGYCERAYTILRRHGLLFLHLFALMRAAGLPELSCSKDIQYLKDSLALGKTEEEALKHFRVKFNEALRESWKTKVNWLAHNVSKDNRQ

[4] = biological target: Phosphatidylinositol 4,5-bisphosphate 3-kinase catalytic subunit gamma isoform (Homo sapiens, UniProt P48736); assay: Inhibition of PI3Kgamma (unknown origin) using PIP2 as substrate incubated for 60 mins in presence of ATP by ADP-Glo assay
Sequence of Phosphatidylinositol 4,5-bisphosphate 3-kinase catalytic subunit gamma isoform (P48736 whole entry, canonical isoform): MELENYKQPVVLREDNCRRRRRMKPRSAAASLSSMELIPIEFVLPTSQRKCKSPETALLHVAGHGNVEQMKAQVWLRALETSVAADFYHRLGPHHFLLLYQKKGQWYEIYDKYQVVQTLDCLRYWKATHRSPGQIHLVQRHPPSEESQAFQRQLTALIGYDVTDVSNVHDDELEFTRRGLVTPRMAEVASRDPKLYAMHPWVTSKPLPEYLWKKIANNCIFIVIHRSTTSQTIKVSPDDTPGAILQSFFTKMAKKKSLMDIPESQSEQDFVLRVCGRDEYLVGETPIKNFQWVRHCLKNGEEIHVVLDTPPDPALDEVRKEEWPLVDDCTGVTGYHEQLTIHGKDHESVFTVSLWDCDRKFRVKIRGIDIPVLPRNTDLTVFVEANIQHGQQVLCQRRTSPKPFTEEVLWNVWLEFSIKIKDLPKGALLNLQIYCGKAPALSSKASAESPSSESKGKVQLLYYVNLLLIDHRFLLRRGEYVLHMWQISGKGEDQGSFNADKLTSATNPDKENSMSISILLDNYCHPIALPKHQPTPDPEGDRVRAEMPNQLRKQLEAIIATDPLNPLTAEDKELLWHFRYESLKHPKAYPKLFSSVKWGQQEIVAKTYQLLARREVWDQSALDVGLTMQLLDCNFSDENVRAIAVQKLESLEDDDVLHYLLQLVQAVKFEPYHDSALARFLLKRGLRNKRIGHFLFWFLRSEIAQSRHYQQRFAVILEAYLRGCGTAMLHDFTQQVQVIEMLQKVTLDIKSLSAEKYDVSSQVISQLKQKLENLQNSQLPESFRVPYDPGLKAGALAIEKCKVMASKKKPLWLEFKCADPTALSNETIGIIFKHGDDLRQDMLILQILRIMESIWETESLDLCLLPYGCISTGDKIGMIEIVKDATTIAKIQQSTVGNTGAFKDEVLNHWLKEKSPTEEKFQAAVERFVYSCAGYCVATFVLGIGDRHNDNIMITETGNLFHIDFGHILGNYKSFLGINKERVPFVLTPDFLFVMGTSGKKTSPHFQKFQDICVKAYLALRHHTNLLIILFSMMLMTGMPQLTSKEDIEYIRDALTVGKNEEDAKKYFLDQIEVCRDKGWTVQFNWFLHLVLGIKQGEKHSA

[5] = biological target: Phosphatidylinositol 4,5-bisphosphate 3-kinase catalytic subunit alpha isoform (Homo sapiens, UniProt P42336); assay: Inhibition of PI3Kalpha (unknown origin) using PIP2 as substrate incubated for 60 mins in presence of ATP by ADP-Glo assay
Sequence of Phosphatidylinositol 4,5-bisphosphate 3-kinase catalytic subunit alpha isoform (P42336 whole entry, canonical isoform): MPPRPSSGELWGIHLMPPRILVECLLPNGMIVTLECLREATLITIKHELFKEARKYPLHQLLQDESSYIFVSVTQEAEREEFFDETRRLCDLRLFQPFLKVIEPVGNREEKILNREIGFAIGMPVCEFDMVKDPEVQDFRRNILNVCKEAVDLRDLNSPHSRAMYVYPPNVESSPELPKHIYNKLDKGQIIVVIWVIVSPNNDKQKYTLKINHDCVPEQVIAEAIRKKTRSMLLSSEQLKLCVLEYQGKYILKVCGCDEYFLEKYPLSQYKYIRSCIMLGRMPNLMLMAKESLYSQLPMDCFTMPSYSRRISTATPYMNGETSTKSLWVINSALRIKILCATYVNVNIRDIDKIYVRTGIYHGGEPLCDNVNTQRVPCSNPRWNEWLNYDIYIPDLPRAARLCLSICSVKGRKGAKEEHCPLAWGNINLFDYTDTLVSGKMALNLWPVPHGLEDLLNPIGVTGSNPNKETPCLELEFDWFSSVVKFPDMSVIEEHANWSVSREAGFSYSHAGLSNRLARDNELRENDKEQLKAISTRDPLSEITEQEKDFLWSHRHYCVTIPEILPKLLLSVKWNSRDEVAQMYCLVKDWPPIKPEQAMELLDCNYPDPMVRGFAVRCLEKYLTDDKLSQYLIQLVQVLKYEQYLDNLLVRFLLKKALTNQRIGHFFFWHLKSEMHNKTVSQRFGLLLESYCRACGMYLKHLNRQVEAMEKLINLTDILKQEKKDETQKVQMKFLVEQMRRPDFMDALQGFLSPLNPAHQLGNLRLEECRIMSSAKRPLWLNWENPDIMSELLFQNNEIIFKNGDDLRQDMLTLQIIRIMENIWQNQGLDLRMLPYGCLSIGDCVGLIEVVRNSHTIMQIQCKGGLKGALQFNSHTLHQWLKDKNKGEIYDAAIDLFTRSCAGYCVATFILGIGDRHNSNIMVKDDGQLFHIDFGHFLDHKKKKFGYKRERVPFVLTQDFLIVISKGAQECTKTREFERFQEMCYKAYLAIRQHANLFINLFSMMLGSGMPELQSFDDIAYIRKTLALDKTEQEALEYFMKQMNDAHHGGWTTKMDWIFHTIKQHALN

[6] = Cmax in fasted Sprague-Dawley rat at 10 mg/kg, po measured for 24 hrs by LC-MS/MS analysis; format: ADME, organism-based; details: in vivo
[7] = Oral bioavailability in fasted Sprague-Dawley rat at 10 mg/kg measured for 24 hrs by LC-MS/MS analysis; format: ADME, organism-based; details: in vivo
[8] = Toxicity in nude BALB/c mouse xenografted with human HL-60 cells assessed as toxic sign in liver at 5 to 10 mg/kg, ip administered for 21 days consecutively by H and E staining based analysis; format: organism-based; details: in vivo, 504 h, dose 5-10 mg/kg, time 21 day
[9] = AUC (0 to infinity) in fasted Sprague-Dawley rat at 10 mg/kg, po measured for 24 hrs by LC-MS/MS analysis; format: ADME, organism-based; details: in vivo
[10] = Apparent volume of distribution in fasted Sprague-Dawley rat at 2 mg/kg, iv measured for 24 hrs by LC-MS/MS analysis; format: ADME, organism-based; details: in vivo, read-out: Vz
[11] = Toxicity in nude BALB/c mouse xenografted with human HL-60 cells assessed as toxic sign in heart at 5 to 10 mg/kg, ip administered for 21 days consecutively by H and E staining based analysis; format: organism-based; details: in vivo, 504 h, dose 5-10 mg/kg, time 21 day
[12] = Clearance in fasted Sprague-Dawley rat at 2 mg/kg, iv measured for 24 hrs by LC-MS/MS analysis; format: ADME, organism-based; details: in vivo
[13] = Toxicity in nude BALB/c mouse xenografted with human HL-60 cells assessed as toxic sign in spleen at 5 to 10 mg/kg, ip administered for 21 days consecutively by H and E staining based analysis; format: organism-based; details: in vivo, 504 h, dose 5-10 mg/kg, time 21 day
[14] = Half life in fasted Sprague-Dawley rat at 2 mg/kg, iv measured for 24 hrs by LC-MS/MS analysis; format: ADME, organism-based; details: in vivo
HL-60 [15] = assay: Induction of apoptosis in human HL-60 cells assessed as viable cells at 1 uM incubated for 48 hrs by Annexin V-FITC/PI staining based flow cytometry (reference value: 97.4 %); format: functional; details: read-out: Activity
[16] = Tmax in fasted Sprague-Dawley rat at 10 mg/kg, po measured for 24 hrs by LC-MS/MS analysis; format: ADME, organism-based; details: in vivo
[17] = Toxicity in nude BALB/c mouse xenografted with human HL-60 cells assessed as toxic sign in kidney at 5 to 10 mg/kg, ip administered for 21 days consecutively by H and E staining based analysis; format: organism-based; details: in vivo, 504 h, dose 5-10 mg/kg, time 21 day
HL-60 [18] = assay: Induction of apoptosis in human HL-60 cells assessed as viable cells at 0.25 uM incubated for 48 hrs by Annexin V-FITC/PI staining based flow cytometry (reference value: 97.4 %); format: functional; details: read-out: Activity
[19] = Toxicity in nude BALB/c mouse xenografted with human HL-60 cells assessed as toxic sign in lung at 5 to 10 mg/kg, ip administered for 21 days consecutively by H and E staining based analysis; format: organism-based; details: in vivo, 504 h, dose 5-10 mg/kg, time 21 day
[20] = Toxicity in nude BALB/c mouse xenografted with human HL-60 cells assessed as body weight change at 5 to 10 mg/kg, ip administered for 21 days consecutively; format: organism-based; details: in vivo, 504 h, dose 5-10 mg/kg, time 21 day
[21] = MRT (infinity) in fasted Sprague-Dawley rat at 2 mg/kg, iv measured for 24 hrs by LC-MS/MS analysis; format: ADME, organism-based; details: in vivo
HL-60 [22] = assay: Induction of apoptosis in human HL-60 cells assessed as viable cells at 0.5 uM incubated for 48 hrs by Annexin V-FITC/PI staining based flow cytometry (reference value: 97.4 %); format: functional; details: read-out: Activity
[23] = Half life in fasted Sprague-Dawley rat at 10 mg/kg, po measured for 24 hrs by LC-MS/MS analysis; format: ADME, organism-based; details: in vivo
[24] = AUC (0 to t) in fasted Sprague-Dawley rat at 10 mg/kg, po measured for 24 hrs by LC-MS/MS analysis; format: ADME, organism-based; details: in vivo
[25] = AUC (0 to t) in fasted Sprague-Dawley rat at 2 mg/kg, iv measured for 24 hrs by LC-MS/MS analysis; format: ADME, organism-based; details: in vivo
[26] = AUC (0 to infinity) in fasted Sprague-Dawley rat at 2 mg/kg, iv measured for 24 hrs by LC-MS/MS analysis; format: ADME, organism-based; details: in vivo
[27] = Toxicity in nude BALB/c mouse xenografted with human HL-60 cells assessed as body weight change at 5 mg/kg, ip administered for 21 days consecutively; format: organism-based; details: in vivo, 504 h, time 21 day
KG-1 = assay: Antiproliferative activity against human KG-1 cells incubated for 48 hrs by CCK8 assay; format: functional, cell-based; details: KG-1, 48 h
[28] = Toxicity in nude BALB/c mouse xenografted with human HL-60 cells assessed as toxic sign in liver at 5 mg/kg, ip administered for 21 days consecutively by H and E staining based analysis; format: organism-based; details: in vivo, 504 h, time 21 day
[29] = Toxicity in nude BALB/c mouse xenografted with human HL-60 cells assessed as toxic sign in heart at 5 mg/kg, ip administered for 21 days consecutively by H and E staining based analysis; format: organism-based; details: in vivo, 504 h, time 21 day
[30] = Antiproliferative activity against human MOLM16 cells incubated for 48 hrs by CCK8 assay; details: MOLM16, 48 h
HL-60 [31] = assay: Antiproliferative activity against human HL-60 cells incubated for 48 hrs by CCK8 assay; format: functional, cell-based; details: HL-60, 48 h
MV4-11 = assay: Antiproliferative activity against human MV4-11 cells incubated for 48 hrs by CCK8 assay; format: functional, cell-based; details: MV4-11, 48 h
EOL1 = assay: Antiproliferative activity against human EOL1 cells incubated for 48 hrs by CCK8 assay; format: functional, cell-based; details: EOL1, 48 h
[32] = Toxicity in nude BALB/c mouse xenografted with human HL-60 cells assessed as toxic sign in kidney at 5 mg/kg, ip administered for 21 days consecutively by H and E staining based analysis; format: organism-based; details: in vivo, 504 h, time 21 day
[33] = Toxicity in nude BALB/c mouse xenografted with human HL-60 cells assessed as toxic sign in lung at 5 mg/kg, ip administered for 21 days consecutively by H and E staining based analysis; format: organism-based; details: in vivo, 504 h, time 21 day
HL-60 [34] = assay: Antitumor activity against human HL-60 cells xenografted in nude BALB/c mouse assessed as tumor growth inhibition at 5 mg/kg, ip administered for 21 days consecutively relative to control; format: functional; details: HL-60, 504 h, time 21 day, read-out: TGI
[35] = Toxicity in nude BALB/c mouse xenografted with human HL-60 cells assessed as toxic sign in spleen at 5 mg/kg, ip administered for 21 days consecutively by H and E staining based analysis; format: organism-based; details: in vivo, 504 h, time 21 day

- IC50 [1]: 32.2 nM
SMILES: O=S(=O)(Nc1cc(-c2cnc3[nH]ncc3c2)cnc1Cl)c1ccccc1

- IC50 [2]: 4.37 nM
- IC50 [1]: 4.26 nM
- IC50 [3]: 0.67 nM
- IC50 [4]: 7.37 nM
- IC50 [5]: 1.17 nM
SMILES: O=S(=O)(Nc1cc(-c2cnc3[nH]nc(-c4ccncc4)c3c2)cnc1Cl)c1ccccc1

- IC50 [1]: 2.65 nM
- IC50 [3]: 1.24 nM
SMILES: O=S(=O)(Nc1cc(-c2cnc3[nH]nc(-c4ccccc4)c3c2)cnc1Cl)c1ccccc1

- IC50 [2]: 1.57 nM
- Cmax [6]: 15.5 ng/mL
- bioavailability [7]: 2.68%
- AUC(0-inf) [9]: 121 ng·h/mL
- Vd [10]: 7.26 L/kg
- clearance [12]: 37 mL/min/kg
- half-life [14]: 2.29 h
- Tmax [16]: 2.8 h
- IC50 [4]: 0.65 nM
- MRT inf [21]: 0.593 h
- half-life [23]: 4.48 h
- IC50 [5]: 0.65 nM
- AUC(0-t) at 24 h [24]: 104 ng·h/mL
- AUC(0-t) at 24 h [25]: 898 ng·h/mL
- AUC(0-inf) [26]: 903 ng·h/mL
SMILES: O=S(=O)(Nc1cc(-c2cnc3[nH]nc(-c4ccncc4)c3c2)cnc1Cl)c1ccc(F)cc1
- Activity [8]: Non-Toxic
- Activity [11]: Non-Toxic
- Activity [13]: Non-Toxic
- viability at 1 µM (HL-60 [15]): 53.5%
- Activity [17]: Non-Toxic
- viability at 0.25 µM (HL-60 [18]): 96.4%
- Activity [19]: Non-Toxic
- Activity [20]: Non-Toxic
- viability at 0.5 µM (HL-60 [22]): 90.4%

- IC50 (HL-60 [31]): 510 nM
- IC50 (MV4-11): 30 nM
SMILES: Cn1c(=O)n(-c2ccc(C(C)(C)C#N)cc2)c2c3cc(-c4cnc5ccccc5c4)ccc3ncc21 [DACTOLISIB]
- Activity [27]: Non-Toxic
- IC50 (KG-1): 1310 nM
- Activity [28]: Non-Toxic
- Activity [29]: Non-Toxic
- IC50 [30]: 500 nM
- IC50 (EOL1): 1050 nM
- Activity [32]: Non-Toxic
- Activity [33]: Non-Toxic
- inhibition in vivo at 5 mg/kg (HL-60 [34]): 62%
- Activity [35]: Non-Toxic
